Assay results reported in patent US20250223552A1, “METHOD FOR PREPARING T CELLS FOR ADOPTIVE T CELL THERAPY” (ST. JUDE CHILDREN'S RESEARCH HOSPITAL, INC., priority 2022, published 2025).

Tests used:
[1] = tested on: MC38-Ova tumors; experiment: MC38-Ova tumor growth after adoptive transfer of inhibitor-pretreated OT-I cells; format: in vivo; details: OT-I cells transiently treated with inhibitor during activation, transferred into tumor-bearing mice; FIG. 3
Description: Naïve OT-I CD8^+ T cells were activated with anti-CD3/CD28 in the presence or absence of Arid1a inhibitor for 48 hours followed by expansion for another 4 days. Data are representative of two independent experiments. Data are shown as mean±s.e.m. **p<0.01; two-way ANOVA.
In Vivo Tumor Transplant Experiment. For B16-Ova and MC38-Ova tumors, 0.5×10^6 tumor cells were injected subcutaneously into naïve mice (7-10 weeks of age). OT-I cells (2×10^6) were transferred i.v. 7 days after tumor injection. Tumors were measured every two days.
Effective adoptive T cell therapy for cancer is critically dependent upon the use of T cells with long-term memory potential (Lugli et al. (2020) Trends Immunol. 41:17-28; Gattinoni et al. (2012) Nat. Rev. Cancer 12:671-684; Klebanoff et al. (2005) Proc. Natl. Acad. Sci. USA 102:9571-9576; Hurton et al. (2016) Proc. Natl. Acad. Sci. USA 113: E7788-E7797). Therefore, it was determined whether manipulation of CBAF can improve anti-tumor therapy. Accordingly, OT-I cells were transduced with sgRNA for Smarcd2 or control sgRNA, and the transduced cells were transferred into animals that were subsequently infected with Lm-Ova. Animals were then inoculated with B16F10 murine melanoma cells expressing Ova (B16-Ova) at memory phase (day >30 post-infection). Improved control of tumor growth and enhanced survival by the Smarcd2-ablated CD8^+ T cells were observed. […]

[2] = tested on: human CD8^+ T cells; experiment: Differentiation of activated human naive CD8+ T cells in vitro (TCM, TSCM, TEM markers); format: cell-based; details: treatment during the first 48 hours; anti-CD3/CD28, culture in IL-15 or IL-2; FIG. 8
Description: Naïve human CD8^+ T cells were activated with anti-CD3/CD28 and cultured with IL-15; Arid1a inhibitor was added at the indicated time point (n=6 per group). Data are compiled from at least two independent experiments. Data are representative of two independent experiments. Data shown are as mean±s.e.m. *p<0.05, **p<0.01, ***p<0.001; one-way ANOVA.
Human Naïve CD8^+ T Cell Isolation and Stimulation. Human naive CD8^+ T cells were isolated from apheresis ring obtained from the St. Jude blood donor center. Peripheral blood mononuclear cells (PBMC) were isolated using a density gradient medium sold under the tradename LYMPHOPREP® (StemCell Inc.) following the manufacturer's protocol. Briefly, blood from apheresis ring was mixed with phosphate-buffered saline (PBS) containing 2% fetal bovine serum in 1:1 ratio. The mixture was then layered carefully on a density gradient medium sold under the tradename LYMPHOPREP®. Samples were centrifuged at 4000 rpm for 30 minutes at room temperature without braking. The PBMC layer was aspirated, washed twice with 2% fetal calf serum/PBS before isolation of naïve CD8^+ T cell using the MojoSort Human CD8^+ Naïve T Cell Isolation Kit (Biolegend). Naïve CD8^+ T cells were then stimulated with human T cell activation and expansion reagent sold under the tradename IMMUNOCULT® Human CD3/CD28 T Cell Activator (StemCell Inc.) plus 50 U/ml rhIL-2 or 10 ng/ml rhIL-15 for 2 days and expanded with 50 U/ml rhIL-2 or 10 ng/ml rhIL-15. BRD-K98645985 (1 μM; AOBIOUS or MedChemExpress) was added at the indicated time points. All human studies were in compliance with the Declaration of Helsinki. Blood donors were recruited by the Blood Donor Center at St. Jude Children's Research Hospital. Blood donors provided written consent for research use of their blood products not used in transfusions, which has been reviewed and approved by the Institutional Review Board at St. Jude Children's Research Hospital.
The effect of the Arid1a inhibitor on the differentiation of activated, human CD8^+ T cells was also analyzed. […] After 30 days, T cells were recovered and analyzed.

[3] = tested on: B7-H3-expressing F420 tumor cells; experiment: Repeat stimulation assay of B7-H3 CAR-T cells with F420 tumor cells; format: cell-based, murine; details: CAR-T:tumor 3:1, counted every 3 days, FIG. 5
Description: T cells were transduced with B7-H3 CAR or a control CAR containing only the scFv and transmembrane domain (B7-H3 STOP CAR) and co-cultured with F420 tumor cells at the ratio of 3:1. Cells numbers were assessed every 3 days. Data are compiled from at least two independent experiments. Data are shown as mean±s.e.m. *p<0.05; two-way ANOVA.
Repeat Stimulation Assay. For repeat stimulation assays, 3×10^5 tumor cells (GL261, F420) were plated in a 24-well plate and allowed to adhere for 4-6 hours at 37° C., CAR-T cells (1×10^6) were then added to the wells containing tumor cells without any exogenous cytokines (tumor: CAR-T cell ratio=1:3). After 3 days of co-culture, CAR-T cells were lifted by gentle pipetting to avoid disrupting adherent tumor cells, and the number of T cells was determined using a hemocytometer. Stimulations and cell counts were repeated every 3 days with the same tumor cells.
Currently the most widely used adoptive T cell therapy employs the use of CARs. However, the use of CAR-T cells for the treatment of solid tumors remains challenging (Lim & June whether CAR-T cell (2017) Cell 168:724-740). […] The ability of B7-H3 CAR-T cells to control the growth of F420 cells was then assessed in vivo.

## CO[C@H]1CN(C)C(=O)c2cc(NC(=O)NC(C)C)ccc2OC[C@H](C)N(Cc2ccc(-c3ccccn3)cc2)C[C@@H]1C [BRD-K98645985]
[1]
  control of MC38-Ova tumor growth in vivo by transferred OT-I cells: improved the ability of OT-I cells to control
[2]
  generation of cells with markers of T memory stem cells (TSCM, CD45RA^+CCR7^+CD27^+CD95^+): necessary and sufficient to promote the generation
  generation of cells with markers of TCM (CD45RA-CCR7+): necessary and sufficient to promote the generation of cells with markers of TCM
  numbers of cells with markers of effector memory T cells (TEM, CD45RA^+CCR7^−): reduced numbers of cells with markers of effector memory T cells
[3]
  expansion of CAR-T cells on repeated stimulation: greater expansion
